# Results taken from patent US20210038732A1, “ANTICANCER MICRORNA AND LIPID FORMULATIONS THEREOF” (INTERNA TECHNOLOGIES B.V., priority 2018, published 2021).
# How the values were obtained:
# [1] = tested on: subq human A2058 melanoma tumors; assay: Tumor growth inhibition in mice bearing subq A2058 tumors (Example 4.2); type: in vivo
# Procedure: To determine TGI effects, the T/C (tumor/control) ratio was determined by calculating the relative percentage increase in TV (tumor volume) for the individual mice of each group (TV of the day of randomization as reference point), and then dividing the group median relative increase in TV for the treated groups by that for the PBS group. Outliers (with respect to individual TVs) within each treatment group were determined by using the formulas Q1−1.5×IQR (lower limit) and Q3+1.5×IQR (upper limit).
# Statistical analysis was performed using Graphpad Prism 7. A two-tailed, non-parametric Mann-Whitney test was used to calculate differences in relative tumor volumes (TV on day ‘X’ divided by TV on the day of randomization). In all statistical tests, the effect of the test items was compared to the PBS group. A p-value <0.05 was considered statistically significant.
# Four to six weeks old female athymic nude mice (Crl:NU(NCr)-Foxn1nu; Charles River) were unilaterally and subcutaneously injected in the flank with 1×10^7 A2058 cells in 50% matrigel (0.2 mL/mouse). At the time of randomization, the TVs (tumor volumes) ranged between 139.4 and 245.5 mm3 (median 161.3, IQR=149.9-175.1). Body weights and TVs (caliper measurements) were determined three times/week. […]
# [2] = tested on: 4T1 triple negative breast cancer tumors; assay: Primary tumor regrowth and survival after 4T1 tumor resection (Example 4.4); type: in vivo, mice
# Procedure: Six to eight weeks old female BALB/c mice (Shanghai Lingchang Bio-Technology Co. Ltd, Shanghai, China) were injected with 3×10^5 4T1 mouse tumor cells in PBS (0.1 mL/mouse) into the mammary fat pad. At the time of randomization, the TVs ranged between 69.9 and 173.9 mm3 (median 105.7, IQR=100.7-125.4). Body weights and TVs (caliper measurements) were determined 2-3 times/week. After randomization (day 9 after tumor inoculation) mice received different treatments under different dosing regimen (see Table 9 for dosing scheme). For all groups, 4 mice are sacrificed 48h after the 2nd miRNA-193a injection in the first week and in the 2nd week. Primary tumors were surgically removed from the mammary fat pad on day 20 after inoculation. After a recovery period of 3 days, treatment was resumed for 6 more weeks until day 63. Re-growth of (distant) tumors was monitored in addition to BW, and mice were sacrificed if end-points were met.
# HEP3B, SNU449, A2058 = assay: Cell cycle distribution by imaging of nuclei (Example 4.9); type: cell-based; conditions: 1 nM, 3 nM and 10 nM, concentration-dependent; vs mock
# Procedure: Depending on cancer cell type 3000-6000 cells were seeded in a 96 well plate. After cells attached, they were transfected with different concentrations of miRNA-193a and cell cycle profile was measured at different time points. At selected time points media was aspirated from wells and DNA staining solution (Hoescht 33342/Saponin/PFA) was added to each well and incubated for 2 hours at 37° C. Then, cell images were taken using Thermo Celllnsite in which nuclei were specified and nuclei intensity were measured. Nuclei intensity was analyzed using program R to determine the different phases of the cell cycle (G0/G1, S, G2/M) based on the DNA content.
# Similar phenotype has been observed in Panc1 (pancreatic cancer cell) as well as H1975 (lung cancer cell) (data not shown). […] MPP2 and STMN1 associate with cytoskeleton and therefore regulate cell division and proliferation at the G2/M phase, while YWHAZ and CCNA2 play roles in regulation of G2/M phase checkpoint by binding and sequestering the cyclin-dependent kinases.
substance,measurement,setting,value
"miRNA-193a: duplex of the miRNA-193a-3p of SEQ ID NO: 218 (mimic, sense) with antisense strand SEQ ID NO: 219; naked in vitro, formulated in vivo (sense UGGGACUUUGUAGGCCAGUUTT; antisense AACUGGCCUACAAAGUCCCAGU; chemistry not given here; listed as Homo sapiens)",T/C (relative tumor volume),"[1]; 3 mg/kg iv QDx5 then BIW, Table 1 entry 1 nanoparticles, 12 days after start of treatment",0.44
same,TGI effects,"[1]; formulated in nanoparticles according to the invention, 3 mg/kg iv",significant TGI effects
same,Tumor re-growth after tumor excision,"[2]; formulated in diamino lipid nanoparticles, 10 mg/kg BIW iv",reduced tumor re-growth
same,Mouse survival,"[2]; formulated in diamino nanoparticles, 10 mg/kg BIW iv",positively affected mouse survival
same,Mice that showed a tumor re-growth after primary tumor removal,"[2]; primary tumor removal day 20, 10 mg/kg twice weekly for further 6 weeks",1 out of 10
same,G2/M arrest,"HEP3B, SNU449, A2058",enhances the G2/M arrest
